Assay results as given in article PMC4008261, “Rewiring of regenerated axons by combining treadmill training with semaphorin3A inhibition” (Molecular Brain, 2014).

How the values were obtained:
Mediator release, IL-10 = assay: Pharmacological profile: mediator release; format: cell-based
From the text: (§1) Table 1 Pharmacological profile of SM-345431 (part 1) | column: IC50 (μm)

Mediator release, IL-5 = assay: Pharmacological profile: mediator release; format: cell-based
From the text: as §1

Mediator release, IL-6 = assay: Pharmacological profile: mediator release; format: cell-based
From the text: as §1

[1] = tested on: Mediator release, TNF-alfa, PBML; assay: Pharmacological profile: mediator release; format: cell-based
From the text: as §1

[2] = tested on: Mediator release, IL-1beta; assay: Pharmacological profile: mediator release; format: cell-based
From the text: as §1

Mediator release, IL-2 = assay: Pharmacological profile: mediator release; format: cell-based
From the text: as §1

Mediator release, IL-4 = assay: Pharmacological profile: mediator release; format: cell-based
From the text: as §1

[3] = tested on: Mediator release, IFN-gamma; assay: Pharmacological profile: mediator release; format: cell-based
From the text: as §1

semaphorin3A [4] = molecular target: T1, semaphorin3A (Homo sapiens, UniProt Q14563); assay: Growth cone collapse assay, E14 rat DRG; format: cell-based; details: read-out: semaphorin3A inhibiting activity, IC50
T1 sequence (Q14563 21-771): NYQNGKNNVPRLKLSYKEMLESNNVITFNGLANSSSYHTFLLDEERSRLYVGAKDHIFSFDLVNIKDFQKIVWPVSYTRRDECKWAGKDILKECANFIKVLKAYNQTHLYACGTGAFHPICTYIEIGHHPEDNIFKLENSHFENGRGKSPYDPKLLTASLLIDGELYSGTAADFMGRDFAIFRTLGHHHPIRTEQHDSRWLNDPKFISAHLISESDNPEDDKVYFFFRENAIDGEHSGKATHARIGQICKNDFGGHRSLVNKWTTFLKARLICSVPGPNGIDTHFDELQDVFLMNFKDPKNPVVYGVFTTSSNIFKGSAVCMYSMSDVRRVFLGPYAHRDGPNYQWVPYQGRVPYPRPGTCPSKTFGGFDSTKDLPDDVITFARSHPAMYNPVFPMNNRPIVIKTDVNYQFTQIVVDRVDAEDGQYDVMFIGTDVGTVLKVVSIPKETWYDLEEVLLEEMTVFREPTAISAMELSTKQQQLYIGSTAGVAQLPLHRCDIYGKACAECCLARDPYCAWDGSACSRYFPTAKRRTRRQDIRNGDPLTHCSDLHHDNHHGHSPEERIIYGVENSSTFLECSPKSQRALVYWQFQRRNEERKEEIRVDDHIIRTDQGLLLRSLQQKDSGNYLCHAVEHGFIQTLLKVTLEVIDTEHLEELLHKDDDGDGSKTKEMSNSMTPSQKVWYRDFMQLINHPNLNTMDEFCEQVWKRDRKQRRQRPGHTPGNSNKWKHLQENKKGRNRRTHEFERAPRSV
Method: (§2) The growth cone collapse assay and collagen co-culture experiments were performed as previously described. To examine the effects of SM-345431-silicone, small pieces (2 × 1 × 0.3 mm; approximately 1 mg containing 1 μg of SM-345431) of the SM-345431-silicone or control-silicone were placed in a collagen gel adjacent to E8 chick DRGs and COS7 cell aggregates, as shown in Figure 1C.

semaphorin3A [5] = molecular target: T1, semaphorin3A; assay: Collagen co-culture assay (E8 chick DRGs and semaphorin3A-expressing COS7 cell aggregates); format: cell-based; parameters: expressed in transfected cells; host or cells: COS7; details: chick embryonic DRG explants co-cultured with semaphorin3A-COS in collagen gel
Method: as §2

[6] = Stability in a silicone sheet; format: physicochemical; details: compared with SM-216289

`CC(=O)c1cc2c(=O)c3c(C(=O)O)c(O)c(O)cc3oc2c(C(C)=O)c1-c1coc2cc(O)c(O)c(C(=O)O)c2c1=O` [SM-345431, Vinaxanthone] showed an IC50 (Mediator release, IL-10) of over 10 µM, an IC50 (Mediator release, IL-5) of over 10 µM and an IC50 (Mediator release, IL-6) of over 10 µM. It also gave an IC50 [1] of over 10 µM, an IC50 [2] of over 10 µM and an IC50 (Mediator release, IL-2) of over 10 µM. The IC50 (Mediator release, IL-4) was over 10 µM, the IC50 [3] was over 10 µM and the IC50 (semaphorin3A [4]) was 0.1 to 0.2 µM. For the same compound, the “block of the chemo-repulsive effects of semaphorin3A on DRG neurites” value (semaphorin3A [5]) was “chemo-repulsive effects of semaphorin3A were blocked by SM-345431 in a dose-dependent manner” and the “stability in a silicone sheet” value [6] was “better stability in a silicone sheet than SM-216289”.
